Laboratory results from patent US7122321B2, “High throughput method for functionally classifying proteins identified using a genomics approach” (Johnson & Johnson Pharmaceutical Research & Development, …, priority 1997, dated 2006).
One block for each molecule: values may come before it.

What was measured:
[1] = tested on: Bovine muscle myosin; assay: microplate thermal shift assay of ATP binding, myosin
Procedure: (§1) Bovine muscle myosin (Sigma), bovine heart 3′–5′ cAMP-dependent protein kinase (Sigma), and chicken muscle pyruvate kinase (Sigma) were each dissolved in Buffer A to generate stock solutions at a final concentration of 2 mg/mL. […] 10 μL of mineral oil was then added to each of the four wells to prevent evaporation. Each data point shown was collected by heating the plate at the temperatures shown for three minutes. For example, the plate was heated to a given temperature, and then allowed to cool to 25 ° C. for one minute, followed by UV illumination and collection of the data. Then the plate was heated to the next higher temperature, and so forth. UV illumination was performed using a long wavelength illumination at […]–420 nm, having a peak at 365 nm. Fluorescence was imaged using a CCD camera having a bandpass filter centered at 550 nm.

[2] = molecular target: T1, chicken muscle pyruvate kinase (Gallus gallus, UniProt P00548); assay: microplate thermal shift assay of ATP binding, pyruvate kinase; settings: 10 mM, standard deviation in parentheses
T1 construct: chicken muscle pyruvate kinase (Sigma); purchased Sigma; host or cells: chicken muscle
T1 sequence (P00548 whole entry): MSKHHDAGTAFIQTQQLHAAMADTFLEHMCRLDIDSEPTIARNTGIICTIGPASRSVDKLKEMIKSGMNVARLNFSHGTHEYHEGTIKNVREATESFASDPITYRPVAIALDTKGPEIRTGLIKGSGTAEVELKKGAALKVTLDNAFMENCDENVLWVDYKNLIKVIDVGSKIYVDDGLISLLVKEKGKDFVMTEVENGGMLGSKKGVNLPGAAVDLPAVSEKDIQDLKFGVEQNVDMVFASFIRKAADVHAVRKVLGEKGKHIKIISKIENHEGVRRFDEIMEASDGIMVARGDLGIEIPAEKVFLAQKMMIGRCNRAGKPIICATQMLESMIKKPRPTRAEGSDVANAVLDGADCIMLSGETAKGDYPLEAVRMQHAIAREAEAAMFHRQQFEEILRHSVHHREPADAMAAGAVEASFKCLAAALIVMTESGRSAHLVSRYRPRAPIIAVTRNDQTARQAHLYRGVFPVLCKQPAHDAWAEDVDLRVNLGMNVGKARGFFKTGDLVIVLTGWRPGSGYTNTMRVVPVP
Procedure: as §1

[3] = molecular target: T2, bovine heart 3′–5′ cAMP-dependent protein kinase (Bos taurus, UniProt P00517); assay: microplate thermal shift assay of ATP binding, cAMP-dependent protein kinase
T2 construct: bovine heart 3′–5′ cAMP-dependent protein kinase (Sigma); purchased Sigma; host or cells: bovine heart

[4] = molecular target: T3, D(II) FGFR1 (Homo sapiens, UniProt P11362); assay: functional probe library screen (microplate thermal shift assay) against D(II) FGFR1; format: binding; settings: functional probe library Plate 1; for effect on thermal stability of D(II) FGFR1: 50 μM D(II) FGFR1
T3 construct: domain II of the fibroblast growth factor receptor 1 (D(II)FGFR1); hexa-histidine (N); made in house; host or cells: E. coli (renatured from inclusion bodies)
T3 sequence (P11362 158-246 limits assumed): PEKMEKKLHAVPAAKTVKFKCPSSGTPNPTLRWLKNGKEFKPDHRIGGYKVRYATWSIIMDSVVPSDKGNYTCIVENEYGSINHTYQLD
From the text: The compounds in functional probe library Plate 1 was also employed to generate an activity spectrum for D(II) FGFR1. D(II) FGFR1 was cloned and expressed in E. coli. Recombinant D(II) FGFR1 was renatured from inclusion bodies essentially as described (Wetmore, D. R. et al., Proc. Soc. Mtg., San Diego, Calif. (1994)), except that a hexa-histidine tag was included at the N-terminus to facilitate recovery by affinity chromatography on a Ni^2+ chelate column (Janknecht, R. et al., Natl. Acad Sci. USA 88:8972–8976 (1991)). D(II) FGFR1 was further purified on a heparin-sepharose column (Kan, M. et al., Science 259:1918–1921 (1993); Pantoliano, M. W. et al., Biochemistry 33:10229–10248 (1994)). Purity was >95%, as judged by SDS-PAGE. The D(II) FGFR1 protein was concentrated to 12 mg/mL (˜1 mM) and stored at 4° C.
Reactions were prepared in 96-well polycarbonate microtitre plate v-bottom wells. The final concentration of D(II) FGFR1 was 50 μM in […], pH 8 in each well of a 96-well polycarbonate microtitre plate.
The fluorescence emission was measured at 460 nm.

[5] = tested on: pigeon liver arylamine acetyltransferase; assay: microplate thermal shift assay, arylamine acetyltransferase; format: binding; settings: Arylamine Acetyl transferase
[6] = molecular target: T4, porcine liver formimino glutamic acid transferase (Sus scrofa, UniProt P53603); assay: microplate thermal shift assay, formimino glutamic acid transferase; format: binding; settings: Formimino L-Glutamic acid Transferase
T4 construct: porcine liver formimino glutamic acid transferase (FGT, Sigma); purchased Sigma; host or cells: porcine liver
T4 sequence (P53603 1-541): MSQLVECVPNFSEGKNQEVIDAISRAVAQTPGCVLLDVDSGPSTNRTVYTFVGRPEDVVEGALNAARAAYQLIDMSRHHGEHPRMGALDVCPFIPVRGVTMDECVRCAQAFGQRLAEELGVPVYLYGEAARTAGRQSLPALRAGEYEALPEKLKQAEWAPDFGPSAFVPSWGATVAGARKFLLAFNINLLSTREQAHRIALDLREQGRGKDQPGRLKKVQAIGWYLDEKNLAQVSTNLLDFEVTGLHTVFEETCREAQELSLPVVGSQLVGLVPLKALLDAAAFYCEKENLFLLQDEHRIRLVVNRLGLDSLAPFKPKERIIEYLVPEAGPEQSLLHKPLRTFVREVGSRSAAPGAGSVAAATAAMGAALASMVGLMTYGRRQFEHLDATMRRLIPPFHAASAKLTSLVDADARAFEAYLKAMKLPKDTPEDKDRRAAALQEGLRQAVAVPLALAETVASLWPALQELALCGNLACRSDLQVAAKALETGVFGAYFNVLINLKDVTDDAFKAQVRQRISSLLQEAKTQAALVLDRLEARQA
Procedure: Folic acid binding can be assayed using the microplate thermal shift assay. Bovine liver dihydrofolate reductase (DHFR, Sigma), chicken liver dihydrofolate reductase (DHFR, Sigma), pigeon liver arylamine acetyltransferase (ArAcT, Sigma), and porcine liver formimino glutamic acid transferase (FGT, Sigma) were each dissolved in Buffer A (50 mM HEPES, pH 7.5, 100 mM NaCl) to generate stock solutions at a final concentration of 2 mg/mL. Solutions of dihydrofolic acid (FAH2), methotrexate, nicotinamide adenine dinucleotide phosphate (NADP), were prepared by dissolving solid material into Buffer A immediately prior to use. Dapoxyl™ 12800 solution was prepared by diluting a stock of 20 mM Dapoxyl™, 12800 in dimethyl sulfoxide to the appropriate concentration in Buffer A.
For the thermal shift assay, four 10 μL aliquots of each assay mixture were dispensed into four wells located in different quadrants of an MJ Research 384-well thermocycler plate. 10 μL of mineral oil was then added to each of the four wells to prevent evaporation. Each data point shown was collected by heating the plate at the temperature shown for three minutes, followed by incubation at 25° C. for one minute, followed by UV illumination and collection of the data.

[7] = molecular target: T5, Bovine liver dihydrofolate reductase (Bos taurus, UniProt P00376); assay: microplate thermal shift assay, bovine DHFR; format: binding; design: Bovine liver dihydrofolate reductase (DHFR, Sigma); purchased Sigma; host or cells: bovine liver; settings: for ΔTm of ligand complexed with DHFR: DHFR (cow), single ligand 10 mM
T5 sequence (P00376 1-187): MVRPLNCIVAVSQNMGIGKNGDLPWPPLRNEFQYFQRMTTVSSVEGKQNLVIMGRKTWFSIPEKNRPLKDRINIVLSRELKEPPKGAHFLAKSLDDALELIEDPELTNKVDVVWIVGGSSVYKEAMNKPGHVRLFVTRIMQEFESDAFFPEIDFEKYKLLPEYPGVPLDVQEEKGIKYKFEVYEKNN

[8] = molecular target: T6, chicken liver dihydrofolate reductase (Gallus gallus, UniProt P00378); assay: microplate thermal shift assay, chicken DHFR; format: binding; settings: for ΔTm of ligand complexed with DHFR: DHFR (chicken), single ligand 10 mM
T6 construct: chicken liver dihydrofolate reductase (DHFR, Sigma); purchased Sigma; host or cells: chicken liver
T6 sequence (P00378 1-189): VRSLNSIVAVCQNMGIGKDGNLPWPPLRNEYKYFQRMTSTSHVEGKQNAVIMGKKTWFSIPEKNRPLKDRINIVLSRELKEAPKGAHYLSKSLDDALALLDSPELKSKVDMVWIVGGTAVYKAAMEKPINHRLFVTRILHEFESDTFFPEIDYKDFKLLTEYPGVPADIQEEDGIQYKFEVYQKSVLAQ

[9] = molecular target: T5, Bovine liver dihydrofolate reductase; assay: microplate thermal shift assay, bovine DHFR; format: binding; design: Kd; Kd; Tm of the thermal unfolding curve; control 47.2° C; control 50.8° C; ΔTm; settings: FIG. 12
[10] = molecular target: human α-thrombin (human) (UniProt P00734); assay: microplate thermal shift assay, Kd at 298 K estimated, hirudin peptide binding thrombin in the presence of 200 µM heparin 5000
[11] = molecular target: human α-thrombin (human) (UniProt P00734); assay: microplate thermal shift assay, Kd at Tm, hirudin peptide binding thrombin in the presence of 200 µM heparin 5000
[12] = molecular target: human α-thrombin (human) (UniProt P00734); assay: microplate thermal shift assay, Kd at Tm, hirudin peptide binding thrombin in the presence of 50 µM 3DP-4660
[13] = molecular target: human α-thrombin (human) (UniProt P00734); assay: microplate thermal shift assay, 1 µM thrombin + 50 µM hirudin peptide alone
[14] = molecular target: human α-thrombin (human) (UniProt P00734); assay: microplate thermal shift assay, 50 µM hirudin peptide added to thrombin in the presence of 50 µM 3DP-4660 (shift against TH/3dp-4660)
[15] = molecular target: human α-thrombin (human) (UniProt P00734); assay: microplate thermal shift assay, Kd at 298 K estimated, hirudin peptide binding thrombin in the presence of 50 µM 3DP-4660
[16] = molecular target: human α-thrombin (human) (UniProt P00734); assay: microplate thermal shift assay, 50 µM hirudin peptide added to thrombin in the presence of 200 µM heparin 5000 (shift against TH/Heparin 5000)
[17] = Myosin, 10 mM, standard deviation in parentheses

Molecule: Nc1ncnc2c1ncn2[C@@H]1O[C@H](COP(=O)(O)OP(=O)(O)OP(=O)(O)O)[C@@H](O)[C@H]1O [ATP, adenosine triphosphate]
Tm of the thermal unfolding curve ([1]; (+)ATP, FIG. 9, control 49.3° C.): 51.4 °C
Kd ([1]; FIG. 9): 440000 nM
ΔTm ([1]; FIG. 9): 2.1 °C
ΔTm [1, 17]: 2.2 (±0.4) ° C.
ΔTm at 10000 µM [2]: -0.44 °C

Molecule: Nc1ncnc2c1ncn2[C@@H]1O[C@H](COP(=O)(O)OP(=O)(O)OP(O)(O)=S)[C@@H](O)[C@H]1O [ATP-γ-S, adenosinetriphosphate-γ-S]
ΔTm [1, 17]: 0.0 (±0.2) ° C.
ΔTm ([3]; 3′–5′ cAMP Protein kinase, 10 mM, standard deviation in parentheses): 5.6 (±1.7) ° C.
Tm of the thermal unfolding curve ([3]; (+) ATP-γ-S, FIG. 10, control 46.2° C.): 51.8 °C
Kd ([3]; FIG. 10): 200000 nM
ΔTm ([3]; FIG. 10): 5.6 °C
ΔTm [2]: 0.8 (±0.11) ° C.

effect on thermal stability of D(II) FGFR1 [4]: stabilize
Molecule: O=C[C@H](O)[C@@H](O)[C@H](O)[C@H](O)CO [D(+)-glucose]

effect on thermal stability of D(II) FGFR1 [4]: stabilize
Molecule: OC[C@H]1O[C@@](CO)(O[C@H]2O[C@H](CO)[C@@H](O)[C@H](O)[C@H]2O)[C@@H](O)[C@@H]1O [D(+)-sucrose]

Molecule: Nc1nc2c(c(=O)[nH]1)N=C(CNc1ccc(C(=O)N[C@@H](CCC(=O)O)C(=O)O)cc1)CN2 [FAH2, dihydrofolic acid]
ΔTm ([5]; 100 μM): −1.8 (±0.5)
ΔTm at 100 µM [6]: 3.62 °C

Molecule: CN(Cc1cnc2nc(N)nc(N)c2n1)c1ccc(C(=O)N[C@@H](CCC(=O)O)C(=O)O)cc1 [Methotrexate, methotrexate]
ΔTm ([5]; 100 μM): 1.0 (±0.4)
ΔTm at 100 µM [6]: 0.9 °C

ΔTm of ligand complexed with DHFR [7]: 9.7 degrees
ΔTm of ligand complexed with DHFR [8]: 11.9 degrees
Tm of the thermal unfolding curve ([9]; (+) NADPH 10 mM, control 50.8° C.): 53.8 °C
Kd [9]: 700 nM
ΔTm ([9]; NADPH 10 mM): 3 °C
Molecule: NC(=O)C1=CN([C@@H]2O[C@H](COP(=O)(O)OP(=O)(O)OC[C@H]3O[C@@H](n4cnc5c(N)ncnc54)[C@H](OP(=O)(O)O)[C@@H]3O)[C@@H](O)[C@H]2O)C=CC1 [NADPH, nicotinamide adenine dinucleotide phosphate-reduced form]

effect on thermal stability of D(II) FGFR1 [4]: stabilize
Molecule: OC[C@@H](O)[C@@H](O)[C@H](O)[C@@H](O)CO [sorbitol]

thermal shift of D(II) FGFR1 ([4]; largest shift): about 11 °C
Molecule: O=P(O)(O)OP(=O)(O)OP(=O)(O)O [tri-polyphosphate]

effect on thermal stability of D(II) FGFR1 [4]: stabilize
Molecule: OC[C@@H](O)[C@H](O)[C@@H](O)CO [xylitol]

Kd [10]: 478 nM
Kd [11]: 4250 nM
Kd [12]: 731 nM
ΔTm [13]: 5.8 ° K.
ΔTm [14]: 4.6 ° K.
Kd [15]: 54 nM
ΔTm [16]: 2.6 ° K.
Molecule: Hirugen (hirudin 53-64) (Sigma) (from UniProt P09945 60-71) (peptide)

Molecule: nicotinamide adenine dinucleotide phosphate [NADP]
ΔTm of ligand complexed with DHFR [7]: 6.3 degrees
ΔTm ([7]; DHFR (first row, reference Tm 52.47), 5 mM): 3.2 (±0.13)
ΔTm ([5]; 5 mM): 2.8 (±0.4)
ΔTm ([6]; 5 mM): 0.0 (±0.2)
ΔTm of ligand complexed with DHFR [8]: 7.5 degrees
ΔTm ([8]; DHFR (second row, reference Tm 56.6), 5 mM): 3.8 (±0.4)
